The EC50 is the midpoint of the concentration-response curve. The Ki is a dissociation constant, usually derived from enzyme kinetics or from competition with a known ligand. Read a high Ki as a looser hold on the target.

Where only a bound is given, the exact number is not on record here.

Experiment [1] addresses T1, human α4β2 NNR (Homo sapiens, UniProt P17787+P43681).
T1 construct: expressed in transfected cells
The experiment in a line: Calcium flux assay (FLIPR), potentiation of submaximal nicotine response in HEK 293 cells expressing α4β2. In kind it is cell-based. To be noted: HEK 293 cells expressing human α4β2; potentiation of submaximal (EC20-30%) agonist such as nicotine; read-out: EC50 (α4β2 PAM). From the text: One manner to characterize α4β2 PAM activity is by characterization in clonal cell lines (for example, human embryonic kidney 293 cells) expressing the human neuronal nicotinic acetylcholine receptor subtype α4β2, particularly by use of Fluorescent Image Plate Reader technology. Effects on calcium flux or membrane potential changes can be assessed. Such assays have been reported and further details for carrying out the assays can be obtained in International Publication No. WO 2006/114400. Another method to identify and characterize allosteric modulator activity is by expressing the α4β2 subunits in Xenopus oocytes, and by measuring electrophysiological effects on ligand-evoked current responses as previously described in Curtis, L., et al., Molecular Pharmacology, 61: 127-135, 2002.
To determine the effectiveness of representative compounds of this invention as ligands for α4β2 PAM activity, the compounds of the invention can be evaluated according to the Calcium Flux Assay described below.
Calcium Flux Assays using Cells Expressing NNR Subtypes
Human embryonic kidney (HEK) 293 cells stably expressing human α4β2 or α3β4 combinations are grown to confluency in 162 cm^2 tissue culture flasks in DMEM media supplemented with 10% FBS and 25 μg/mL zeocin and 200 μg/mL hygromycin B. Cells expressing rat or ferret subunits may also be used. For assessing α3* or α7* selectivity, IMR-32 cells may also be used. IMR-32 neuroblastoma cells (ATCC) are grown to confluency in 162 cm^2 tissue culture flasks in minimum essential media supplemented with 10% FBS and 1 mM sodium pyruvate, 1% non-essential amino acids and 1% antibiotic-antimycotic. For the calcium flux assay, the cells are then dissociated using cell dissociation buffer and 100-150 μL per well of 3.5×10^5 cells/mL cell suspension (˜50,000-100,000 cells/well) was plated into 96-well black plates (poly-D-lysine precoated) with clear bottom and maintained for 24-48 hours in a tissue culture incubator at 37° C. under an atmosphere of 5% CO2: 95% air. Other clonal cell lines or primary cell cultures that express endogenous α4* nicotinic receptors may also be used in this assay. Calcium flux was measured using calcium-3 assay kit (Molecular Devices, Sunnyvale, Calif.) or fluo-4 (Invitrogen). A stock solution of the dye was prepared by dissolving each vial supplied by the vendor in Hank's balanced salt solution buffer (HBSS) or 150 mM NMDG, 20 mM calcium chloride containing 10 mM HEPES. The stock solution was diluted 1:20 using the same buffer before use. The growth media was removed from the cells. The cells were loaded with 100 μL of the dye per well and incubated at room temperature for up to one hour for HEK 293 clonal stable cell lines or 30 minutes-45 minutes at 37° C. for IMR-32 cells. Fluorescence measurements were read simultaneously from all the wells by a Fluorometic Imaging Plate Reader (FLIPR) at an excitation wavelength of 480 nm and an emission wavelength of 520 nm. Baseline fluorescence was measured for the first 6 seconds at which 3× concentrations of modulator/test compounds were added to the cell plate at 50 μL and incubated for five minutes. The fluorescence intensity was captured every second for the first 1 minute followed by every 5 seconds for an additional 4 minutes. This procedure was followed by 50 μL of 4× concentration of agonist and readings were taken for a period of 3-5 minutes as described above.
The ability of test compounds to positively modulate the response (i.e., increase the response) induced by a submaximal concentration of agonist (EC20-30%) such as nicotine is measured. Potentiation is measured based on peak fluorescence responses by screening compounds at fixed concentrations or in a concentration-response manner to derive EC50 values. The concentration dependence of changes in fluorescence responses is fitted by nonlinear regression analysis (GraphPad Prism, San Diego, Calif.) to obtain EC50 values. […]
(A change in cytosolic calcium serves as a functional read-out for many receptors and channels.)

The target in experiment [2] is T2, hERG cardiac potassium channel (Homo sapiens, UniProt Q12809).
T2 construct: expressed in transfected cells; host or cells: HEK-293 cells (membrane homogenate)
T2 sequence (Q12809 whole entry): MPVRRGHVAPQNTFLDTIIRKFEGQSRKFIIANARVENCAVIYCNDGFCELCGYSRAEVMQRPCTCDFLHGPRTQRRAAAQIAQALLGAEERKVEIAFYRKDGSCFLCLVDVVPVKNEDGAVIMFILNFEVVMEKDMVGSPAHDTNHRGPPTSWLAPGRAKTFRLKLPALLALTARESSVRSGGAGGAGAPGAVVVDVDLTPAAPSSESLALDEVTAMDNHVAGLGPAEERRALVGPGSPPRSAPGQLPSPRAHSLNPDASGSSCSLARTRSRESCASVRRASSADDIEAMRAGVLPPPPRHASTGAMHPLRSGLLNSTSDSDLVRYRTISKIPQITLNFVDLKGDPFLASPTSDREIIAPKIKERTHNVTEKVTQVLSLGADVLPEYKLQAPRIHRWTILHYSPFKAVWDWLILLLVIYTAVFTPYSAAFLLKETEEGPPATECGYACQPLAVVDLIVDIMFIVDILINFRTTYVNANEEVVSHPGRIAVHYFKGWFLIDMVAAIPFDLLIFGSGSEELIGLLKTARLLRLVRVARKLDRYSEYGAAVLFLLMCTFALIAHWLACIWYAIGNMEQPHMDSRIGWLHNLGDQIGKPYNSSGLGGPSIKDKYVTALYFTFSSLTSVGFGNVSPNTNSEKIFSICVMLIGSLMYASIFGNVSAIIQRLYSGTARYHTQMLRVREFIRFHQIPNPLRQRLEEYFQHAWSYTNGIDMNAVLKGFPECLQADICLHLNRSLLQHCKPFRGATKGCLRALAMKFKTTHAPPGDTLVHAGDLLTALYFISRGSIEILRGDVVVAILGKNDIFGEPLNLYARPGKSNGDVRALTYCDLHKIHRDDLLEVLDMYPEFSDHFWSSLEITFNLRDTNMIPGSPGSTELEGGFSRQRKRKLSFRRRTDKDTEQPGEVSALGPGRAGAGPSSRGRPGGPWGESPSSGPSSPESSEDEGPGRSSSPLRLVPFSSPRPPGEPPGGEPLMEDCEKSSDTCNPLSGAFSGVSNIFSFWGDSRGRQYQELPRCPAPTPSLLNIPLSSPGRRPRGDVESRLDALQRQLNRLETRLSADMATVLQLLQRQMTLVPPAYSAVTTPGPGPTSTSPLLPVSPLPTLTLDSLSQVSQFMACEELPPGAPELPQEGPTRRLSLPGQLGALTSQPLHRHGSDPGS
The experiment in a line: [3H]dofetilide/HEK-293 membrane competition binding assay. The settings on record: displacement of [3H]dofetilide, HEK-293 membrane homogenates expressing hERG; Ki from IC50 by Cheng-Prusoff. The source says: Drugs that block the cardiac potassium channel encoded by the human ether-a-go-go gene (hERG) have been associated clinically with QT interval prolongation, proarrhythmia, and in some rare cases, sudden cardiac death. The identification of drugs that block hERG has become a critical component of the safety profile. The [^3H]dofetilide/HEK-293 membrane competition binding assay described below permits the ranking of compounds for their potential to block the hERG potassium channel.
[^3H]dofetilide/HEK-293 Membrane Competition Binding Assay
The binding affinity of test drugs for the hERG cardiac potassium channel was determined by their ability to displace tritiated dofetilide (a class III antiarrhythmic drug and potent hERG blocker) in membrane homogenates from HEK-293 cells heterogously expressing the hERG channel. The assay was performed as previously described (Diaz, G.; Daniell, K.; Leitza, S. T.; Martin, R. L.; Su, Z.; McDermott, J. S.; Cox, B. F.; Gintant, G. A. The [^3H]dofetilide binding assay is a predictive screening tool for hERG blockade and proarrhythmia: Comparison of intact cell and membrane preparations and effects of altering [K^+]O. Journal of Pharmacological and Toxicological Methods 2004, 50, 187-199.). Briefly, drug dilutions were prepared from 10 mM dimethyl sulfoxide stocks and the following were added to a 96-well polystyrene plate (Perkin-Elmer Optiplate): 20 μL of assay binding buffer (for total bounds), or 1 μM astemizole (for non-specific bounds), or test drug, 50 μL of [^3H]dofetilide (20 nM, ˜80 Ci/mmol specific activity), and 130 μL of membrane homogenate (final protein concentration of 30 μg per well). The plates were incubated at ambient temperature for 45 minutes, aspirated onto GF/B filter plates (Perkin-Elmer), and washed with 2 mL of cold wash buffer. After allowing the plates to dry, 50 μL of scintillant (Perkin-Elmer MicroScint 20) were added to each well and the radioactivity was counted in a Perkin-Elmer Topcount NXT scintillation counter. IC50 determinations were calculated from competition curves using 6 drug concentrations, half-log apart, starting at a high concentration of 100 μM (final assay dimethyl sulfoxide concentration=1%) using a four-parameter logistic equation. Ki values were derived from the calculated IC50 values by using the Cheng and Prusoff (Cheng, Y.; Prusoff, W. H. Relationship between the inhibition constant (KI) and the concentration of inhibitor which causes 50 percent inhibition (I50) of an enzymatic reaction. Biochemical Pharmacology 1973, 22(23), 3099-3108) equation (Ki=IC50/1+[ligand]/Kd) using Kd values for [^3H]dofetilide obtained from saturation assays previously described (Diaz et al., 2004).
In general terms: Loss of bound radioactivity is the signal in a displacement assay; it reports binding, not function.

T1 sequence (P43681 29-627 limits assumed): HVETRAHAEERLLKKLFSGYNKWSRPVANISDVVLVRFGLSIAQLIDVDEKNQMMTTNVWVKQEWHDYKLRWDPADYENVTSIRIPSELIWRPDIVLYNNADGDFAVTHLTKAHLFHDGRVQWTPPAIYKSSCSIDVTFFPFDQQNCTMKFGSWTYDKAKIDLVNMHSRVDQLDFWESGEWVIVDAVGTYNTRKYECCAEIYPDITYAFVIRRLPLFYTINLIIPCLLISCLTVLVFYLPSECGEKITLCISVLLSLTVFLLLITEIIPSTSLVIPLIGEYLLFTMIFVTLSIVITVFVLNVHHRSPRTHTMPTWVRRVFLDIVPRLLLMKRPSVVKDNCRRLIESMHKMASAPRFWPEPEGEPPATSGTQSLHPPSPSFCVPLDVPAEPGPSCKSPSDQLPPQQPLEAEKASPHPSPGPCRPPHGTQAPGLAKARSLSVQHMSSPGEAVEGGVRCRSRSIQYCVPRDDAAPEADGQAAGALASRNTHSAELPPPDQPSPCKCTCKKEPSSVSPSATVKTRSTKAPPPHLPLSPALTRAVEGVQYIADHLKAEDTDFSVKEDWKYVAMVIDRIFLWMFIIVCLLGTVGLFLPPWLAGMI
T1 sequence (P17787 26-502): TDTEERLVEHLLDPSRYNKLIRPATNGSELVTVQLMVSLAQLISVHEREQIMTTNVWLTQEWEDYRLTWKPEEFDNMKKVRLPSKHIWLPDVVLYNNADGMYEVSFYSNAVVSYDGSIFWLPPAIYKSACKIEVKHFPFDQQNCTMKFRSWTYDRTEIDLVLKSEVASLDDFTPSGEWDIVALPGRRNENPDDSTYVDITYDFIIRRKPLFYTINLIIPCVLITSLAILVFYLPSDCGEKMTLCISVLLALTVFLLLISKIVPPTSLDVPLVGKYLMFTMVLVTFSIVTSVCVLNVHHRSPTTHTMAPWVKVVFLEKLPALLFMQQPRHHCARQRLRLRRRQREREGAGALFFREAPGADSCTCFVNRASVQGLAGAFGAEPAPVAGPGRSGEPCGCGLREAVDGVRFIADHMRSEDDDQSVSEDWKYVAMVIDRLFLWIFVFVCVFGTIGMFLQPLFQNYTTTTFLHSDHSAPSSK

On to `COc1cc(C(=O)N2CCC3(CCN(C)CC3)CC2)ccc1F` [Example 2, 3-(4-fluoro-3-methoxybenzoyl)-9-methyl-3,9-diazaspiro[5.5]undecane], for which the EC50 in experiment [1] came out at 970 nM. In addition, the inhibition constant (Ki) in experiment [2] was greater than 53000 nM. With `COc1ccc(C(=O)N2CCC3(CCN(C)CC3)CC2)cc1F` [Example 3, 3-(3-fluoro-4-methoxybenzoyl)-9-methyl-3,9-diazaspiro[5.5]undecane], the EC50 in experiment [1] was 4300 nM. In addition, the affinity in experiment [2], expressed as Ki, was 13000 nM. For the compound `COc1ccc(C(=O)N2CCC3(CCN(C)CC3)CC2)cc1Cl` [Example 4, 3-(3-chloro-4-methoxybenzoyl)-9-methyl-3,9-diazaspiro[5.5]undecane], in experiment [1], the EC50 worked out at 160 nM. This compound showed a Ki in experiment [2] of 16000 nM. In the case of `COc1c(Cl)cc(C(=O)N2CCC3(CCN(C)CC3)CC2)cc1Cl` [Example 5, 3-(3,5-dichloro-4-methoxybenzoyl)-9-methyl-3,9-diazaspiro[5.5]undecane], in experiment [1], the EC50 is 40 nM. Further, the affinity in experiment [2], expressed as Ki, was 19000 nM. Take `COc1cc(C(=O)N2CCC3(CCN(C)CC3)CC2)cc(Cl)c1OC` [Example 6, 3-(3-chloro-4,5-dimethoxybenzoyl)-9-methyl-3,9-diazaspiro[5.5]undecane]: the EC50 in experiment [1] amounted to 360 nM. In experiment [2], the Ki was greater than 54000 nM. On to `COc1ccc(NC(=O)N2CCC3(CCN(C)CC3)CC2)cc1F` [Example 7, N-(3-fluoro-4-methoxyphenyl)-9-methyl-3,9-diazaspiro[5.5]undecane-3-carboxamide], for which the EC50 in experiment [1] was 1620 nM. Also, the Ki in experiment [2] stood at 8500 nM. As to `COc1ccc(NC(=O)N2CCC3(CCN(C)CC3)CC2)cc1Cl` [Example 8, N-(3-chloro-4-methoxyphenyl)-9-methyl-3,9-diazaspiro[5.5]undecane-3-carboxamide], the EC50 in experiment [1] is 610 nM. As for `COc1cc(OC)c(NC(=O)N2CCC3(CCN(C)CC3)CC2)cc1Cl` [Example 9, N-(5-chloro-2,4-dimethoxyphenyl)-9-methyl-3,9-diazaspiro[5.5]undecane-3-carboxamide], in experiment [1], the EC50 was found to be 3740 nM. Take `COc1ccc(CC(=O)N2CCC3(CCN(C)CC3)CC2)cc1F` [Example 10, 3-[(3-fluoro-4-methoxyphenyl)acetyl]-9-methyl-3,9-diazaspiro[5.5]undecane]: the EC50 in experiment [1] was determined as 1690 nM.

The values above are taken from patent US8268853B2, “3,9-diazaspiro[5,5]undecane amides and ureas and methods of use thereof” (Abbott Laboratories, priority 2009, dated 2012).
